Reference: patent US7803764B2, “Amphipathic glycopeptides” (The Arizona Board of Regents on Behalf of the University of …, priority 2004, dated 2010)
“Also recorded” adds a separate entry of the source.

How the values were obtained:
[1] = helicity by circular dichroism; format: physicochemical; settings: for % α-helicity: CD, SDS micelles (30 mM), pH = 7.0, 18° C.
Experimental: Circular Dichroism. All of the circular dichroism experiments were carried out on Aviv Associates model 60DS using an Endcal Model RTE4DD water circulator as a temperature-control vehicle. The instrument was calibrated by using d-10-camphorsulphonic acid. The spectra were recorded between 200 and 250 nm by using the continuous mode with a 1.5 nm bandwidth, a three second response and a scan step of 0.5 nm in a cell with a path length of 0.1 cm. Three or five scans were accumulated and averaged for each spectrum. Glycopeptide stock solutions were prepared by weighing the required amount, using Cahn/Ventron Instruments Model 21 automatic analytical electrobalance, to make 1 mL of a 0.5-1.0 mM solution and the pH was adjusted to the desired value. Samples were prepared by diluting the stock solution to 70-80 μM. All observed spectra were baseline-subtracted and smoothed by adjacent average of 5 points using Microcal Origin Ver. 5.0 software (Microcal Software Inc, USA). The molar ellipticities were determined using the formula [θ]=[θ]obs·(MRW)/10·l·C, where [θ]obs observed ellipticity in millidegrees, MRW is the mean residue weight, l is the cell path length in centimeters and C is the glycopeptide concentration in mg/mL. The percent α-helicity was determined by using the formula % helix=[θ]n→π*/−40,000 (1−2.5/n)·100, where n represents the number of amide bonds (including the C-terminal amide) in the glycopeptide and [θ]n→π** is molar ellipticity of n→π* transition band at 222 nm.^55
Conformational Analysis by CD. Circular dichroism (CD) is a powerful and simple tool for identifying secondary structure in both peptides and proteins.^64 All the peptides were subjected to CD analysis in H2O, TFE-H2O mixtures, SDS micelles and phospholipid bicelles. In H2O, a negative band near 200 nm is observed that arises from the π→π* electronic transition and is typical of random coil peptides. […] This behavior is explained as nascent helices.^65 In these nascent helices, helix CD signals could be induced by the addition of TFE.^66 All the glycopeptides gave an increased helix CD signal in TFE. The percentage of helicity increases as TFE concentration increases, but reached a maximum at 30% TFE. The increase in helicity in TFE can be attributed to decreased competition by H2O for hydrogen bonding to the backbone amides. […] In the presence of SDS micelles and anionic bicelles, the band at 200 nm underwent a red shift (higher value) and an additional shoulder appears around 222 nm as a result of the n→π* transition. […] The negative maxima at 222 nm (n→π* transition band) is used to calculate the helical content of polypeptides and proteins. The accepted value for a peptide that is 100% helical is approximately −35,000. It was observed that changes in amplitude of the bands up to 30% depend on length of helix.^67 The amplitude increases as α-helical chain length increases. Therefore, one has to consider the importance of chain-length dependence of the α-helix CD in the quantitative treatment of helix content in proteins and polypeptides. The percentage of helicity is independent of SDS concentration and pH (data not shown). In the presence of zwitterionic bicelles all of the glycopeptides yielded CD spectra similar to that observed in H2O, but anionic bicelles forced them to become more helical. The intensities of the [θ]π→π* band and the [θ]n→π* band are expected to be almost equal for a perfect α-helical peptide. […] A modest blue shift and reduced intensity for the [θ]n→π* transition bands are observed for all the glycopeptides in TFE. […] The glycopeptides 9 (Pro/Glc) and 12 (Pro/Lactose), which differ only by the sugar moiety attached, adopt perfect helices in the presence of SDS micelles and in anionic bicelles. The disaccharide increased the percentage of helicity in all the solvents, relative to the monosaccharide. […] It is remarkable to note that a single amino acid mutation at position 6 produced profound changes in the CD spectra. […]

δ opioid receptor = δ opioid receptor (Homo sapiens, UniProt P41143); experiment: opioid receptor binding, δ receptor
Sequence of δ opioid receptor (P41143 whole entry): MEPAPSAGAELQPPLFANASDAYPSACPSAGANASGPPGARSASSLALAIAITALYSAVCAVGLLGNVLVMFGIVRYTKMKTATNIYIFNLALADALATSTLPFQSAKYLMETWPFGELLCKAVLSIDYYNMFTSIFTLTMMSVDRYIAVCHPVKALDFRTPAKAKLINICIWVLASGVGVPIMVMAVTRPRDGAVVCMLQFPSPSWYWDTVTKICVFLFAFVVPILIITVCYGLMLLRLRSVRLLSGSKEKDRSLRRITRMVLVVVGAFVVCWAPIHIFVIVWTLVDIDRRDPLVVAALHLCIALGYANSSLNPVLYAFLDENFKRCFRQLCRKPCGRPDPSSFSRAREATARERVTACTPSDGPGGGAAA

μ opioid receptor = μ opioid receptor (Homo sapiens, UniProt P35372); experiment: opioid receptor binding, μ receptor
Sequence of μ opioid receptor (P35372 whole entry): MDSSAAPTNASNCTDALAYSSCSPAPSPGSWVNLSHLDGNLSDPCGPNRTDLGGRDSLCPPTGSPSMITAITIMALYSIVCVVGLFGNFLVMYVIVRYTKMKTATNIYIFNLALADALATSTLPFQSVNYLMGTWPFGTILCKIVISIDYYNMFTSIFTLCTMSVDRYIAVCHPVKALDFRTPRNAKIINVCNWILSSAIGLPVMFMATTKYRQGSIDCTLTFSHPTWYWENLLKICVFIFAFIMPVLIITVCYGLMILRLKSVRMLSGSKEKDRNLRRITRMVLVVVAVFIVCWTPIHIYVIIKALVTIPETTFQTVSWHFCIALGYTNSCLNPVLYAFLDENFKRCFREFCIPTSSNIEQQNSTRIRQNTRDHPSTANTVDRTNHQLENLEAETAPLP

[2] = in vivo antinociception after i.c.v. administration; parameters: species or system mice; settings: for A50 i.c.v.: antinociception
water solubility = settings: H2O
[3] = helicity by NMR αCH chemical shift index; format: physicochemical
Experimental: NMR Spectroscopy. All NMR spectra were recorded on a Bruker DRX600 600 MHz spectrometer. Glycopeptide concentration for the NMR experiments varied from 2-3 mM. The glycopeptides were prepared in TFE-water solution by dissolving the peptide in 0.6 ml solution of a premixed 30% TFE-water mixture. The micelle samples were prepared by dissolving the glycopeptide and 100 equivalent of perdeuterated SDS in 0.6 ml of H2O/D2O (9:1 ratio by volume). Bicelles were produced from deuterated phospholipids. The zwitterionic bicelles were made by mixing the short chain phospholipid dihexanoyl-sn-glycero-3-phosphatidylcholine-d22 (DHPC) and the long chain 1,2-dimyristoyl-sn-glycero-3-phosphatidylcholine-d54 (DMPC) in the molar ratio of 2:1 in H2O. The […] were prepared by substituting 10 mol % of 1,2-dimyristoyl-sn-glycero-3-phospho-1-glycerol-d54 (DMPG) for DMPC. The glycopeptide to bicelle ratio was 1:25. After the glycopeptide was added to the bicelle solution, the system was submitted to a series o f three freeze/thaw/slight vortex shaking cycles. The pH of the each sample was adjusted to 4.5 by using DCl or NaOD as necessary. TSP (3-(trimethylsilyl)-d4-propionic acid) was added as an internal standard. The experiments in F3CCD2OD/H2O mixtures were at 293 K and for experiments in micelles/bicelles were at 298 or 311 K. Two-dimensional double quantum filtered correlation (DQF-COSY), rotating-frame Overhauser enhancement^56 (ROESY), Nuclear Overhauser enhancement^57 (NOESY), and total correlation spectra^58 (TOCSY) were acquired using standard pulse sequences and processed using XWINNMR (Bruker Inc) and FELIX2000 (Accelrys Inc, San Diego, Calif.), Mixing times for TOCSY spectra were either 80 or 100 ms. Mixing times for ROESY spectra were 150 or 250 ms, and for NOESY spectra were 200 or 300 ms. All experiments were 750 increments in t1, 16/32/64 scans each, 1.5 s relaxation delay, size 2 or 4K, and the spectral processing was with shifted sine bell window multiplications in both dimensions.
αCH Chemical Shift Index. […] At this point there is no accepted random coil αCH values for glycosylated serine, CSI values for this position are uncertain. The conformational shift values for all solvents were obtained using the random coil values described by Wright and co-workers.^72 Although, these reference shifts were obtained at pH=5.0 at 4.2° C., they appear to be very insensitive to the conditions, as very small deviations (±0.04) were observed when random coil values are obtained at pH=7.0 at 35° C. by Wuthrich and co-workers.^68 The quantification of secondary structure based on αCH chemical shifts is neglected in the literature because various contributions cannot be strictly accounted for, such as electrostatic effects, ring current shifts, and other magnetic anisotropies. However, it is possible to make qualitative comparison of helical content between closely related (glyco)peptides. Since the 3rd generation glycopeptides differ by only one amino acid at position 6, the helical content was obtained based on the αCH chemical shift values (Table 3). The method described by Gierasch and co-workers^69a was used. First, the average conformational shift was calculated for each glycopeptide by adding all upfield shifts in the helical regions and dividing by the total number of peptide bonds. Then, to obtain the overall helical content for each glycopeptide, the average conformational shift was divided by 0.35 ppm, which was assigned for 100% helicity. Since, there are no random coil values available for β-Alanine and glycosylated serine residues, they were not included in the calculation. The helicogenic Aib residue lacks an α-proton, and there was no correction included in the calculation for the helicity provided by Aib residue. The helical content obtained by this method correlated with the helical content obtained by CD. […]

[4] = Plasmon-waveguide resonance (PWR) binding to lipid bilayer; settings: egg PC bilayer, 25° C., read-out: dissociation constant KD for lipid bilayer
Experimental: Plasmon-waveguide resonance (PWR) spectroscopy. The PWR instrument used for these experiments was Aviv Beta prototype version device obtained from Proterion Corp. (Piscataway, N.J.) having a spectral resolution of 1 millidegree. Self-assembled so lid-supported lipid membranes were prepared according to the method used for the formation of freely suspended lipid bilayers.^62 This involves spreading a small amount of lipid solution across an orifice in a Teflon sheet that separates the thin dielectric film (SiO2) from the aqueous phase. The hydrophilic surface of hydrated SiO2 attracts the polar groups of the lipid molecules, thus inducing an initial orientation of the lipid molecules, with the hydrocarbon chains pointing toward the droplet of excess lipid solution. The next steps of bilayer formation, induced by adding aqueous buffer to the sample compartment of the PWR cell, involve a thinning process and the formation of a plateau-Gibbs border of lipid solution that anchors the membrane to the Teflon spacer. In the present experiments, the lipid films were formed from a solution containing 5 mg/ml egg phosphatidylcholine (PC) in squalene/butanol/methanol (0.05:9.5:0.5, v/v). […] Aliquots of the glycosylated peptides, dissolved in deionized water, were injected stepwise in the PWR cell sample and the signal monitored until equilibrium was reached (PWR signal steady). […]

[5] = blood-brain barrier uptake / penetration; settings: mice

| SMILES | % α-helicity [1] [%] | IC50 (δ opioid receptor) [nM] | IC50 (μ opioid receptor) [nM] | A50 i.c.v. ([2]; i.c.v., mice) [nmol] | water solubility (water solubility) | other results |
| --- | --- | --- | --- | --- | --- | --- |
| CC(C)C[C@H](NC(=O)[C@H](C)NC(=O)[C@H](CC(N)=O)NC(=O)[C@H](Cc1ccccc1)NC(=O)[C@H](Cc1c[nH]c2ccccc12)NC(=O)[C@H](CCCCN)NC(=O)[C@H](CO[C@@H]1O[C@H](CO)[C@@H](O)[C@H](O)[C@H]1O)NC(=O)[C@H](C)NC(=O)[C@H](CC(C)C)NC(=O)[C@H](CCC(=O)O)NC(=O)CNC(=O)[C@H](CC(C)C)NC(=O)[C@H](Cc1ccccc1)NC(=O)CNC(=O)[C@H](NC(=O)[C@@H](N)Cc1ccc(O)cc1)[C@H](C)O)C(=O)N[C@@H](CCC(=O)O)C(=O)N[C@@H](CO[C@@H]1O[C@H](CO)[C@@H](O)[C@H](O)[C@H]1O)C(N)=O (relative stereo) [Glycopeptide 2, YtGFLGELAS*KWFNALES*] | 67 | 9.5 | 144 | 0.27 | appreciable water solubility; also recorded: significant solubility in water | receptor selectivity (in words) (δ opioid receptor; δ versus μ, receptor binding assays): somewhat δ-selective; potency relative to morphine ([2]; i.c.v. administration, more potent than morphine): roughly 18 times; A50 value after i.c.v. administration ([2]; i.c.v., mice): 120 pmoles per mouse |
| CC(C)C[C@H](NC(=O)[C@H](CO[C@@H]1O[C@H](CO)[C@@H](O)[C@H](O)[C@H]1O)NC(=O)[C@H](CCCCN)NC(=O)[C@H](CC(C)C)NC(=O)[C@H](C)NC(=O)[C@H](CCCCN)NC(=O)[C@H](CCC(=O)O)NC(=O)C(C)(C)NC(=O)[C@H](CC(C)C)NC(=O)[C@H](CC(N)=O)NC(=O)CNC(=O)CNC(=O)[C@H](CC(C)C)NC(=O)[C@H](Cc1ccccc1)NC(=O)CNC(=O)[C@H](NC(=O)[C@@H](N)Cc1ccc(O)cc1)[C@H](C)O)C(N)=O (relative stereo) [Glycopeptide 11, YtGFLGGNLBEKALKS*L] | – | 32.5 | 53 | 0.030 | – | % α-helicity by CD ([1]; solvent Bicelle A (anionic bicelles)): 17%; % α-helicity by CD ([1]; solvent H2O): >1%; % α-helicity by CD ([1]; solvent SDS micelles): 17%; % α-helicity by CD ([1]; solvent TFE): 18%; % α-helicity by NMR ([3]; solvent H2O): 19%; % α-helicity by NMR ([3]; solvent SDS micelles): 39%; % α-helicity by NMR ([3]; solvent TFE): 28%; Kd [4]: 30000 nM; BBB uptake [5]: 0.002 microliters per min per gram of cortex; blood brain barrier penetration (in words) [5]: did not; also recorded: low BBB penetration rates |
| CC(C)C[C@H](NC(=O)[C@H](C)NC(=O)[C@H](CC(N)=O)NC(=O)[C@H](Cc1ccccc1)NC(=O)[C@H](Cc1c[nH]c2ccccc12)NC(=O)[C@H](CCCCN)NC(=O)[C@H](CO[C@@H]1O[C@H](CO)[C@@H](O)[C@H](O)[C@H]1O)NC(=O)[C@H](C)NC(=O)[C@H](CC(C)C)NC(=O)[C@H](CCC(=O)O)NC(=O)CNC(=O)[C@H](CC(C)C)NC(=O)[C@H](Cc1ccccc1)NC(=O)CNC(=O)[C@H](NC(=O)[C@@H](N)Cc1ccc(O)cc1)[C@H](C)O)C(=O)N[C@@H](CCC(=O)O)C(N)=O (relative stereo) [Glycopeptide 1, YtGFLGELAS*KWFNALE] | 85 | – | – | – | H2O insoluble | – |
| CC(C)C[C@H](NC(=O)[C@H](C)NC(=O)[C@H](CC(N)=O)NC(=O)[C@H](Cc1ccccc1)NC(=O)[C@H](Cc1c[nH]c2ccccc12)NC(=O)[C@H](CCCCN)NC(=O)[C@H](CO[C@@H]1O[C@H](CO)[C@@H](O)[C@H](O)[C@H]1O)NC(=O)[C@H](C)NC(=O)[C@H](CC(C)C)NC(=O)[C@H](CCC(=O)O)NC(=O)CNC(=O)[C@H](CC(C)C)NC(=O)[C@H](Cc1ccccc1)NC(=O)CNC(=O)[C@H](NC(=O)[C@@H](N)Cc1ccc(O)cc1)[C@H](C)O)C(=O)N[C@@H](CCC(=O)O)C(=O)N[C@@H](CO[C@@H]1O[C@H](CO)[C@@H](O)[C@H](O)[C@H]1O)C(=O)N[C@@H](Cc1ccccc1)C(N)=O (relative stereo) [Glycopeptide 3, YtGFLGELAS*KWFNALES*F] | 65 | – | – | – | H2O insoluble | – |
| CC(C)C[C@H](NC(=O)[C@H](C)NC(=O)[C@H](CC(N)=O)NC(=O)[C@H](Cc1ccccc1)NC(=O)[C@H](Cc1c[nH]c2ccccc12)NC(=O)[C@H](CCCCN)NC(=O)[C@H](CO[C@@H]1O[C@H](CO)[C@@H](O)[C@H](O)[C@H]1O)NC(=O)[C@H](C)NC(=O)[C@H](CC(C)C)NC(=O)[C@H](CCC(=O)O)NC(=O)CNC(=O)[C@H](CC(C)C)NC(=O)[C@H](Cc1ccccc1)NC(=O)CNC(=O)[C@H](NC(=O)[C@@H](N)Cc1ccc(O)cc1)[C@H](C)O)C(=O)N[C@@H](CCC(=O)O)C(=O)N[C@@H](CO[C@@H]1O[C@H](CO)[C@@H](O)[C@H](O)[C@H]1O)C(=O)N[C@@H](Cc1ccccc1)C(=O)N[C@@H](Cc1c[nH]c2ccccc12)C(N)=O (relative stereo) [Glycopeptide 4, YtGFLGELAS*KWFNALES*FW] | 82 | – | – | – | H2O insoluble | – |
